Patent US12653190B2, “Heteroaryl-triazole compounds as pesticides” (Bayer Aktiengesellschaft, priority 2020, dated 2026)

Tests used:
Assay type in all cases: in vivo
[1] = test system: fall armyworm larvae (Spodoptera frugiperda); test: Spodoptera frugiperda spray test; settings: in Zea mays, 168 h
Protocol: Spodoptera frugiperda—Spray Test
(§1) • Solvent: 78.0 parts by weight acetone • 1.5 parts by weight dimethylformamide • Emulsifier: alkylarylpolyglycol ether
(§2) To produce a suitable preparation of active compound, 1 part by weight of active compound is mixed with the stated amount of solvents and is diluted with water, containing an emulsifier concentration of 1000 ppm, to the desired concentration. Further test concentrations are prepared by dilution with emulsifier containing water.
Maize (Zea mays) leaf sections are sprayed with a preparation of the active ingredient of the desired concentration. Once dry, the leaf sections are infested with fall armyworm larvae (Spodoptera frugiperda). After 7 days mortality in % is determined. 100% means all caterpillars have been killed and 0% means none of the caterpillars have been killed.

[2] = test system: larvae of the southern green stink bug (Nezara viridula); test: Nezara viridula spray test; settings: 96 h, after 4 days, barley plants
Protocol: Nezara viridula—Spray Test
(§3) • Solvent: 78.0 parts by weight of acetone • 1.5 parts by weight of dimethylformamide • Emulsifier: alkylarylpolyglycol ether
(§4) To produce a suitable preparation of active compound, 1 part by weight of active compound is mixed with the stated amount of solvent, and the concentrate is diluted with water, containing an emulsifier concentration of 1000 ppm, to the desired concentration. Further test concentrations are prepared by dilution with emulsifier containing water.
Barley plants (Hordeum vulgare) are sprayed with a test solution containing the desired concentration of the active ingredient and are infested with larvae of the southern green stink bug (Nezara viridula).
After 4 days mortality in % is determined. 100% means all the stink bugs have been killed; 0% means none of the stink bugs have been killed.

[3] = test system: larvae of the banded cucumber beetle (Diabrotica balteata); test: Diabrotica balteata spray test; settings: 168 h, 100 g/ha (=32 μg/well), after 7 days, wheat seeds, read-out: efficacy (seedling growth)
Protocol: Diabrotica balteata—Spray Test
as §3, §4
Soaked wheat seeds (Triticum aestivum) are placed in a multiple well plate filled with agar and some water and are incubated for 1 day to germinate (5 seeds per well). The germinated wheat seeds are sprayed with a test solution containing the desired concentration of the active ingredient. Afterwards each unit is infected with 10-20 larvae of the banded cucumber beetle (Diabrotica balteata).
After 7 days efficacy in % is determined. 100% means all the seedlings have grown up like in the untreated, uninfected control; 0% means none of the seedlings have grown.

[4] = test system: green peach aphid (Myzus persicae); test: Myzus persicae spray test; settings: foliar, 120 h, after 5 days, Chinese cabbage leaf disks
Protocol: Myzus persicae—Spray Test
as §1, §2
Chinese cabbage (Brassica pekinensis) leaf disks infected with all instars of the green peach aphid (Myzus persicae), are sprayed with a preparation of the active ingredient of the desired concentration.
After 5 days mortality in % is determined. 100% means all aphids have been killed and 0% means none of the aphids have been killed.

[5] = test system: adult mosquitoes Culex quinquefasciatus strain P00; test: Culex quinquefasciatus test (CULXFA surface treatment & contact assay); settings: 24 hours after contact, read-out: efficacy (mortality); for mortality at 20 mg/m2: surface concentration 20 mg/m^2, 30 minutes exposure
Protocol: Culex quinquefasciatus Test (CULXFA Surface Treatment & Contact Assay)
(§5) • Solvent: Aceton+2000 ppm rapeseed oil methyl ester (RME)
In order to produce a sufficient, active ingredient containing solution it is necessary to solve the test compound in the solvent-mix (acetone at 2 mg/ml/RME 2 000 ppm). This solution is pipetted onto a glazed tile and after evaporation of the acetone, adult mosquitoes of the species Culex Quinquefasciatus strain P00 are placed onto the dried surface. The exposure time is 30 minutes. Mortality in percent (%) is determined 24 hours after contact of the insects to the treated surface. 100% mortality means that all tested insects are dead, whereas 0% means that no insect died.

[6] = test system: Rhipicephalus (Boophilus) microplus larvae (strain Parkhurst, resistant against synthetic pyrethroids); test: Rhipicephalus (Boophilus) microplus in-vitro contact test, larval cattle tick; settings: 5 μg/cm^2 (=500 g/ha), after 48 hours, read-out: efficacy (larvae dead or moribund)
Protocol: Rhipicephalus (Boophilus) microplus—In-Vitro Contact Tests Larval Cattle Tick (Strain Parkhurst, Resistant Against Synthetic Pyrethroids)
9 mg compound is solved in 1 mL acetone and diluted with acetone to the desired concentration. 250 μL of the test solution is filled in 25 mL glass test tubes and homogeneously distributed on the inner walls by rotation and tilting on a shaking device (2 h at 30 rpm). With a compound concentration of 900 ppm, an inner surface of 44.7 cm^2 and a homogeneous distribution, a dose of 5 μg/cm^2 is achieved.
After the solvent has evaporated, each test tube is filled with 20-50 cattle tick larvae (Rhipicephalus microplus), closed with a perforated lid and incubated in a horizontal position at 85% relative humidity and 27° C. in an incubator. After 48 hours efficacy is determined. The larvae are patted on the ground of the tubes and negative geotactic behavior is recorded.
An efficacy of 100% means all larvae are dead or moribund; 0% means no larvae are dead or moribund.

[7] = test system: adult engorged female ticks (Rhipicephalus microplus); test: Rhipicephalus (Boophilus) microplus injection test; settings: 168 h, egg deposition monitored after 7 days, read-out: efficacy (infertile eggs); for pest or weed control at 4 µg/tick: 4 μg/tick injected
Protocol: Rhipicephalus (Boophilus) microplus—Iniectiontest
• Solvent: dimethyl sulfoxide
To produce a suitable preparation of active compound, 10 mg of active compound are dissolved in 0.5 mL solvent, and the concentrate is diluted with solvent to the desired concentration.
Five adult engorged female ticks (Rhipicephalus microplus) are injected with 1 μL compound solution into the abdomen. The ticks are transferred into replica plates and incubated in a climate chamber.
After 7 days egg deposition of fertile eggs is monitored. Eggs where fertility is not visible are stored in a climate chamber till hatching after about 42 days. An efficacy of 100% means all eggs are infertile; 0% means all eggs are fertile.

[8] = test system: adult flies Musca domestica strain WHO-N; test: Musca domestica test (MUSCDO surface treatment & contact assay); settings: 24 hours after contact, read-out: efficacy (mortality)
Protocol: Musca domestica Test (MUSCDO Surface Treatment & Contact Assay)
as §5
In order to produce a sufficient, active ingredient containing solution it is necessary to solve the test compound in the solvent-mix (acetone at 2 mg/ml/RME 2000 ppm). This solution is pipetted onto a glazed tile and after evaporation of the acetone, adult flies of the species Musca domestica strain WHO-N are placed onto the dried surface. The exposure time is 30 minutes.
(§6) Mortality in percent (%) is determined 24 hours after contact of the insects to the treated surface. 100% mortality means that all tested insects are dead, whereas 0% means that no insect died.

[9] = test system: adult mosquitoes Aedes aegypti strain MONHEIM; test: Aedes aegypti test (AEDSAE surface treatment & contact assay); settings: 24 hours after contact, read-out: efficacy (mortality); for mortality at 4 mg/m2: surface concentration 4 mg/m^2, 30 minutes exposure; for mortality at 20 mg/m2: surface concentration 20 mg/m^2, 30 minutes exposure
Protocol: Aedes aegypti Test (AEDSAE Surface Treatment & Contact Assay)
as §5
In order to produce a sufficient, active ingredient containing solution it is necessary to solve the test compound in the solvent-mix (acetone at 2 mg/ml/RME 2000 ppm). This solution is pipetted onto a glazed tile and after evaporation of the acetone, adult mosquitoes of the species Aedes aegypti strain MONHEIM are placed onto the dried surface. The exposure time is 30 minutes.
as §6

[10] = surface concentration 4 mg/m^2, 30 minutes exposure

| SMILES | mortality at 100 g/ha [1] [%] | mortality at 500 g/ha [2] [%] | pest or weed control at 32 µg/disc, 100 g/ha [3] [%] | mortality at 100 g/ha [4] [%] | pest or weed control at 5 µg/cm2, 5 µg/cm2 [6] [%] | other results |
| --- | --- | --- | --- | --- | --- | --- |
| C[C@H](NC(=O)c1cc(OC2CC2)cc(OC(F)(F)F)c1)c1ncnn1-c1ncc(C#N)s1 [Example I-64] | 100 | 100 | 100 | – | – | – |
| C[C@H](NC(=O)c1cc(Cl)cc(C(C)(C)C#N)c1)c1ncnn1-c1ncc(C#N)s1 [Example I-37] | 100 | 100 | 100 | 90 | – | mortality at 20 mg/m2 [5]: 80 to 100% |
| Cc1nc([C@H](C)NC(=O)c2cc(Cl)cc(C(C)(C)C#N)c2)n(-c2ncc(C(=O)N(C)C)s2)n1 [Example I-40] | 100 | – | 80 | 90 | – | – |
| C[C@H](NC(=O)c1cc(Cl)cc(Oc2ccccc2)c1)c1ncnn1-c1ccc(C#N)cn1 [Example I-7] | – | – | – | – | 100 | pest or weed control at 4 µg/tick [7]: 100%; pest or weed control at 20 µg/tick ([7]; 20 μg/tick injected): 100% |
| C[C@H](NC(=O)c1cc(OC(F)(F)F)cc(C(C)(C)C#N)c1)c1ncnn1-c1ncc(C(=O)N(C)C)s1 [Example I-73] | 100 | 100 | 100 | 100 | – | – |
| CNC(=O)c1cnc(-n2ncnc2[C@H](C)NC(=O)c2cc(OC(F)(F)F)cc(C(C)(C)C#N)c2)s1 [Example I-74] | 100 | 100 | 100 | 100 | – | mortality at 100 g/ha [2]: 100% |
| CC(C)c1cc(C(=O)N[C@@H](C)c2ncnn2-c2ccc(C#N)cn2)cc(C(C)(C)C#N)c1 [Example I-48] | 83 | – | 100 | – | 100 | – |
| C[C@H](NC(=O)c1cc(OC2CC2)cc(OC(F)(F)F)c1)c1nc(C2CC2)nn1-c1ncc(C#N)s1 [Example I-65] | – | – | – | – | 100 | – |
| Cc1nc([C@H](C)NC(=O)c2cc(Cl)nc(C(C)(C)C#N)c2)n(-c2ncc(C#N)s2)n1 [Example I-70] | 100 | 100 | 100 | – | – | – |
| C[C@H](NC(=O)c1cc(CC#N)cc(OC(F)(F)F)c1)c1ncnn1-c1ncc(C#N)s1 [Example I-54] | 100 | – | – | – | 90 | – |
| C[C@H](NC(=O)c1cc(Cl)nc(C(C)(C)C#N)c1)c1ncnn1-c1cc(C#N)ncn1 [Example I-75] | 100 | 100 | 100 | – | – | – |
| C[C@H](NC(=O)c1cc(OC(F)(F)F)cc(C(C)(C)C#N)c1)c1ncnn1-c1ncc(C#N)s1 [Example I-43, 3-(1-Cyano-1-methyl-ethyl)-N-[(1S)-1-[2-(5-cyanothiazol-2-yl)-1,2,4-triazol-3-yl]ethyl]-5-(trifluoromethoxy)benzamide] | 100 | 100 | 100 | 100 | – | mortality at 100 g/ha [2]: 100%; mortality at 4 mg/m2 [8, 10]: 80 to 100%; mortality at 20 mg/m2 ([8]; surface concentration 20 mg/m^2, 30 minutes exposure): 80 to 100%; mortality at 4 mg/m2 [9]: 80 to 100%; mortality at 20 mg/m2 [9]: 80 to 100%; mortality at 4 mg/m2 [5, 10]: 80 to 100%; mortality at 20 mg/m2 [5]: 80 to 100% |
| C[C@H](NC(=O)c1cc(OCC=C(Cl)Cl)cc(C(F)(F)F)c1)c1ncnn1-c1ccc(C#N)cn1 [Example I-26] | – | – | 100 | – | 100 | – |
| C[C@H](NC(=O)c1cc(Br)cc(C(F)(F)C2CC2)c1)c1ncnn1-c1ncc(C#N)s1 [Example I-53] | 100 | – | 100 | – | – | mortality at 20 mg/m2 [9]: 80 to 100% |
| C[C@H](NC(=O)c1cc(OCC(Cl)=C(Cl)Cl)cc(C(F)(F)F)c1)c1ncnn1-c1ncc(C#N)s1 [Example I-28] | 100 | – | 100 | – | 100 | pest or weed control at 4 µg/tick [7]: 100% |
| C[C@H](NC(=O)c1cc(OC(F)(F)F)cc(C(C)(C)C#N)c1)c1ncnn1-c1cnc(C#N)cn1 [Example I-56] | 100 | 100 | 100 | 90 | – | mortality at 100 g/ha [2]: 90%; mortality at 4 mg/m2 [9]: 80 to 100%; mortality at 20 mg/m2 [9]: 80 to 100% |
| C[C@H](NC(=O)c1cc(Cl)nc(C(C)(C)C#N)c1)c1ncnn1-c1ncc(C#N)s1 [Example I-71] | 100 | 100 | 100 | – | – | – |
